Measurements taken from patent publication US7192975B2, “Arylimidazole derivatives, preparation and therapeutic used thereof” (Societe de Conseils de Recherches Et d''Applications …, priority 2002, dated 2007).
Structures can show the parent of a compound that is named as a salt.

melting point [°C] | SMILES
97 to 98 | CCCCOC(=O)NCCc1nc(-c2ccc(-c3ccc(N=C(N)c4cccs4)cc3)cc2)c[nH]1 (as salt: hydrochloride) [Example 3, butyl 2-[4-(4′-{[(1Z)-amino(thien-2-yl)methylene]amino}-1,1′-biphenyl-4-yl-1H-imidazol-2-yl]ethylcarbamate hydrochloride]
> 225 | NC(=Nc1cccc(-c2c[nH]c(CNC3CCCCC3)n2)c1)c1cccs1 (as salt: hydrochloride) [Example 6, N′-(3{2-[cyclohexylamino)methyl]-1H-imidazol-4-yl}phenyl)thiophene-2-carboximidamide hydrochloride]
> 191 | N=C(Nc1cccc(-c2c[nH]c(CCC3CCCCC3)n2)c1)c1cccs1 (as salt: hydrochloride) [Example 13, N-{3[2-(2-cyclohexlethyl)-1H-imidazol-4-yl]phenyl}thiophene-2-carboximidamide hydrochloride]
185 to 186 | NC(=N[N+](=O)[O-])Nc1ccc(-c2c[nH]c(CCC3CCCCC3)n2)cc1 (as salt: hydrochloride) [Example 19, N{4-[2-(2-cyclohexylethyl)-1H-imidazol-4-yl]phenyl}N″-nitroguanidine hydrochloride]
210 to 212 | CCCCN(CCc1nc(-c2cccc(/N=C(/N)c3cccs3)c2)c[nH]1)C(=O)O.Cl [Example 2, butyl-2[4(3-{[(1E)-amino(thien-2yl)methylene]-amino}phenyl)-1H-imidazol-2-yl]ethylcarbamate hydrochloride]
185 to 186 | Cl.NC(=Nc1ccc(-c2c[nH]c(CCNC3CCCCC3)n2)cc1)c1cccs1 [Example 5, N′-(4-{2-[2-(cyclohexylamino)ethyl]-1H-imidazol-4-yl}phenyl)thiophene-2-carboximidamide hydrochloride]
240 to 241 | CN(Cc1nc(-c2ccc(N=C(N)c3cccs3)cc2)c[nH]1)C1CCCCC1.Cl [Example 7, N′-[4-(2-{[cyclohexyl(methyl)amino]methyl}-1H-imidazol-4-yl)phenyl]thiophene-2-carboximidamide hydrochloride]
150 to 151 | Cl.NC(=Nc1ccc(-c2c[nH]c(CN(Cc3ccccc3)Cc3ccccc3)n2)cc1)c1cccs1 [Example 8, N′-(4{2-[(dibenzylamino)methyl]-1H-imidazol-4-yl}phenyl)thiophene-2-carboximidamide hydrochloride]
228 to 229 | Cl.NC(=Nc1ccc(-c2c[nH]c(CNCc3ccccc3)n2)cc1)c1cccs1 [Example 9, N′-(4-{2-[(benzylamino)methyl]-1H-imidazol-4-yl}phenyl)thiophene-2-carboximidamide hydrochloride]
> 300 | Cl.NC(=Nc1cccc(-c2c[nH]c(C/N=C(/N)c3cccs3)n2)c1)c1cccs1 [Example 11, N′-{3[2-({[(1E)-amino(thien-2-yl)methylene]-amino}methyl)-1H-imidazol-4-yl]phenyl}thiophene-2-carboximidamide hydrochloride]
227 to 228 | Cl.NC(=Nc1ccc(-c2c[nH]c(C/N=C(/N)c3cccs3)n2)cc1)c1cccs1 [Example 12, N′-{4-[2-({[(1E)-amino(thien-2-yl)methylene]-amino}methyl)-1H-imidazol-4-yl]phenyl}thiophene-2-carboximidamide hydrochloride]
163.3 | CCCCCC(CCCCC)c1nc(-c2cccc(N=C(N)c3cccs3)c2)c[nH]1.Cl [Example 14, N′-{3-[2(1-pentylhexyl)-1H-imidazol-4-yl]phenyl}thiophene-2-carboximidamide hydrochloride]
196.2 | Cl.NC(=Nc1ccc(-c2c[nH]c(CCC3CCCCC3)n2)cc1)c1cccs1 [Example 15, N′-{4-[2-(2-cyclohexylethyl)-1H-imidazol-4-yl]phenyl}thiophene-2-carboximidamide hydrochloride]
180 to 181 | Cl.NC(=Nc1cccc(-c2c[nH]c(CCCC3CCCCC3)n2)c1)c1cccs1 [Example 17, N′-{3-[2-(3-cyclohexylpropyl)-1H-imidazol-4-yl]phenyl}thiophene-2-carboximidamide hydrochloride]
264 to 265 | Cl.NC(=Nc1ccc(-c2c[nH]c(CNC3CCCCCC3)n2)cc1)c1cccs1 [Example 20, N′-(4-{2-[(cycloheptylamino)methyl]-1H-imidazol-4-yl}phenyl)thiophene-2-carboximidamide hydrochloride]
> 250 | CNCc1nc(-c2ccc(N=C(N)c3cccs3)cc2)c[nH]1.Cl [Example 21, N′-(4-{2-[(methylamino)methyl]-1H-imidazol-4-yl}phenyl)thiophene-2-carboximidamide hydrochloride]
263 to 264 | Cl.NC(=Nc1ccc(-c2c[nH]c(CNC3CCC3)n2)cc1)c1cccs1 [Example 22, N′-(4-{2-[(cyclobutylamino)methyl]-1H-imidazol-4-yl}phenyl)thiophene-2-carboximidamide hydrochloride]
> 250 | Cl.NC(=Nc1ccc(-c2c[nH]c(CNCC(c3ccccc3)c3ccccc3)n2)cc1)c1cccs1 [Example 23, N′[4-(2-{[(2,2-diphenylethyl)amino]methyl}-1H-imidazol-4-yl)phenyl]thiophene-2-carboximidamide hydrochloride]
> 245 | Cl.NC(=Nc1cccc(-c2c[nH]c(CC/N=C(/N)c3cccs3)n2)c1)c1cccs1 [Example 24, N′-{3-[2-(2{[(1E)-amino(thien-2-yl)methylene]amino}ethyl)-1H-imidazol-4-yl]phenyl}thiophene-2-carboximidamide hydrochloride]
214 to 216 | CC(C)Cc1ccc(Cc2nc(-c3cccc(N=C(N)c4cccs4)c3)c[nH]2)cc1.Cl [Example 27, N′-{3-[2-(4-isobutylbenzyl)-1H-imidazol-4-yl]phenyl}thiophene-2-carboximidamide hydrochloride]
